From publication PMC7465190, “Inhibition of Tyrosyl-DNA Phosphodiesterase 1 by Lipophilic Pyrimidine Nucleosides” (Molecules, 2020)
Entries after “also recorded” stand apart in the source; their conditions may differ.

What was measured:
Tdp1 = Tdp1 (Homo sapiens, UniProt Q9NUW8); experiment: Real-time detection of Tdp1 activity (fluorophore-quencher oligonucleotide biosensor); type: biochemical; conditions: 1.5 nM purified Tdp1, 50 nM biosensor, 26 °C, three independent experiments; read-out: IC50 (inhibition of Tdp-1)
Sequence of Tdp1 (Q9NUW8 whole entry): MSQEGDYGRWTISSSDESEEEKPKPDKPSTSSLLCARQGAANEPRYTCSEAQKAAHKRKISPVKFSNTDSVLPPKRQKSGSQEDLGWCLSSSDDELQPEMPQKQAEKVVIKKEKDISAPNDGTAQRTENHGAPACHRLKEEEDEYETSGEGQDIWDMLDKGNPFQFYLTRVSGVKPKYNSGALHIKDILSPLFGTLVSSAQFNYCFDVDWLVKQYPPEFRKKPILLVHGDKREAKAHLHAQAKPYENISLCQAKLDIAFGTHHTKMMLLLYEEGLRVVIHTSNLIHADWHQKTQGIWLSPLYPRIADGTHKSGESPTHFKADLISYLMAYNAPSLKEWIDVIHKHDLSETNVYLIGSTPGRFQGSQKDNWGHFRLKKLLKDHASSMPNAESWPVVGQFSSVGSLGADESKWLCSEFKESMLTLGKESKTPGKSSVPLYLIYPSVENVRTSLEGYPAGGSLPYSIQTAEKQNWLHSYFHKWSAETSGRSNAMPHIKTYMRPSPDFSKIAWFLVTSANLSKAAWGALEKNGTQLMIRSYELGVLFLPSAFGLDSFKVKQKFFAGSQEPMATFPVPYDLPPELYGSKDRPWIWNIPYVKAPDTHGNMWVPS
From the text: Previously, we designed a real-time oligonucleotide biosensor based on the capability of Tdp1 to remove fluorophore quenchers from the 3′ end of DNA [27]. The single-stranded substrate was a 16-mer oligonucleotide containing both a 5′-FAM fluorophore donor and a quenching 3′-BHQ moiety. When the quencher is removed by Tdp1, FAM fluorescence flares up and can be detected by a fluorimeter. Fluorescence intensity diminishes in the presence of an inhibitor; curves of the obtained Tdp1 activity versus inhibitor concentration can be used to calculate IC50 values. We also investigated some structurally related compounds obtained by previously developed methods; these compounds feature a modification either in a carbohydrate or heterocyclic moiety (Table 1).
This procedure was reported in our previous work. The approach consists of fluorescence intensity measurement in a reaction of quencher removal from a fluorophore quencher–coupled DNA oligonucleotide catalyzed by Tdp1 in the presence of an inhibitor (the control samples contained 1% of DMSO). The reaction mixtures (200 μL) contained Tdp1 buffer (50 mM Tris-HCl pH 8.0, 50 mM NaCl, and 7 mM β-mercaptoethanol), 50 nM biosensor, an inhibitor being tested, and purified Tdp1 (1.5 nM). The biosensor was a single-stranded oligonucleotide (5′-[FAM] AAC GTC AGGGTC TTC C [BHQ]-3′) containing a fluorophore at the 5′ end (5,6-FAM) and Black Hole Quencher 1 (BHQ) at the 3′ end and was synthesized in the Laboratory of Biomedical Chemistry at the Institute of Chemical Biology and Fundamental Medicine (Novosibirsk, Russia).
The reactions were incubated at a constant temperature of 26 °C on a POLARstar OPTIMA fluorimeter (BMG LABTECH, GmbH, Ortenberg, Germany) to measure fluorescence every 55 s (ex. 485/em. 520 nm) during the linear phase (here, data from minute 0 to minute 8). The values of IC50 were determined using a six-point concentration response curve in three independent experiments and were calculated using MARS Data Analysis 2.0 (BMG LABTECH).

[1] = Intrinsic cytotoxicity, EZ4U Cell Proliferation and Cytotoxicity Assay; type: cell-based, human; conditions: human, HeLa cells (cervical cancer), 3 days, EZ4U assay
Experimental: (§1) First, we assessed the toxicity of the compounds to HeLa cells (cervical cancer cells). Analysis of the intrinsic cytotoxicity of the compounds was examined in the EZ4U Cell Proliferation and Cytotoxicity Assay (Biomedica, Austria). The tested compounds were added to the medium (the volume of added reagents was 1/100 of the total volume of the culture medium, and the amount of DMSO (dimethyl sulfoxide) was 1% of the final volume), and the cell culture was monitored for 3 days. Control cells were grown in the presence of 1% DMSO. Intrinsic cytotoxicity of the compounds was either absent or negligible at concentrations up to 100 μM (>80% live cells) with the exception of compounds 2b, 2c, and 7, in the presence of which, at a concentration of 100 μM, 30–45% of the cells died (Table 1 and Figure 1).
(§2) Intrinsic toxicity of the compounds to human cell line HeLa (cervical cancer) was examined by means of the EZ4U Cell Proliferation and Cytotoxicity Assay (Biomedica, Wien, Austria), according to the manufacturer’s protocols. The cells were grown in Iscove’s modified Dulbecco’s medium (IMDM) with 40 μg/mL gentamicin, 50 IU/mL penicillin, 50 μg/mL streptomycin (MP Biomedicals), and 10% of fetal bovine serum (Biolot) in a 5% CO2 atmosphere. After formation of a 30–50%-confluent monolayer, one of the tested compounds was added to the medium (the volume of the added reagents was 1/100 of the total volume of the culture medium, and the amount of DMSO was 1% of the final volume), and the cell culture was monitored for 3 days. Control cells were grown in the presence of 1% DMSO. To assess the influence of the inhibitors on the cytotoxic effect of topotecan, the latter from the manufacturer ACTAVIS GROUP PTC ehf. (Bucharest, Romania) was used. First of all, 50% cytotoxic concentrations of topotecan and of each inhibitor were determined to attain a defined single-agent effect. Second, three independent tests were performed with each inhibitor in combination with topotecan.

HeLa cells [2] = experiment: Cytotoxicity in combination with topotecan, EZ4U assay; type: cell-based; conditions: for change of cytotoxicity of the compound in the presence of topotecan (synergy): compound 1, 5, 20, 100 μM with 2 μM topotecan, Figure 2; for sensitizing effect on cytotoxicity of topotecan: Figure 3
Experimental: To study the influence of the inhibitors on the cytotoxic effect of topotecan, the latter from the manufacturer ACTAVIS GROUP PTC ehf. was used. To select a nontoxic but effective concentration of the nucleoside compounds, we investigated their cytotoxicity in the presence of 2 μM topotecan (concentration causing the death of half the HeLa cells). Three independent cytotoxicity assays were performed with each inhibitor in combination with topotecan. For the cells treated with a nucleoside derivative alone, values in the control wells treated with 1% DMSO were set to 100% viability. For the cells treated with a combination of the drugs, the viability of cells treated only with topotecan was set to 100%.
as §2

HeLa cells [3] = experiment: Intrinsic cytotoxicity, EZ4U Cell Proliferation and Cytotoxicity Assay; type: cell-based, human; conditions: for cells died: compound at 100 μM, 3 days
Experimental: as §1, §2

[4] = compound at 20 μM, various doses of topotecan

| SMILES | IC50 (Tdp1) [µM] | CC50 at 3 days [1] [µM] | change of cytotoxicity of the compound in the presence of topotecan (synergy) (HeLa cells [2]) | other results |
| --- | --- | --- | --- | --- |
| O=C(OCC1OC(n2cc(Cl)c(=O)[nH]c2=O)C(OC(=O)c2ccccc2)C1OC(=O)c1ccccc1)c1ccccc1 (stereo not shown) [Compound 2f, 2′,3′,5′-Tri-O-benzoyl-5-chlorouridine] | 3.6 ± 1.1 | > 100 | Inactive |  |
| O=c1[nH]c(=O)n([C@@H]2O[C@H](CO)[C@@H](O)[C@H]2O)cc1F [Compound 1b, 5-Fluorouridine, reference compound] | > 50 |  |  |  |
| CC(=O)O[C@@H]1O[C@H](COC(=O)c2ccccc2)[C@@H](OC(=O)c2ccccc2)[C@H]1OC(=O)c1ccccc1 [Compound 9, 1-O-acetyl-2,3,5-tri-O-Bz-β-D-Rib] | 4.2 ± 0.3 |  |  |  |
| Cc1cc(=O)[nH]c(=O)n1[C@@H]1O[C@H](COC(=O)c2ccccc2)[C@@H](OC(=O)c2ccccc2)[C@H]1OC(=O)c1ccccc1 [Compound 2g, 2′,3′,5′-Tri-O-benzoyl-6-methyluridine] | 3.4 ± 0.2 | > 100 | significantly (p = 0.05, Mann–Whitney U test) enhanced; also recorded: synergistic effect with topotecan; also recorded: enhanced the cytotoxicity | sensitizing effect on cytotoxicity of topotecan (HeLa cells [2]; [4]): doubled the cytotoxicity of topotecan; also recorded: doubling topotecan’s activity |
| O=C(OC[C@H]1O[C@@H](n2cc(I)c(=O)[nH]c2=O)[C@H](OC(=O)c2ccccc2)[C@@H]1OC(=O)c1ccccc1)c1ccccc1 [Compound 2d, 2′,3′,5′-tri-O-benzoyl-5-iodouridine] | 0.6 ± 0.9 | > 100 | Inactive |  |
| O=C(OCC1OC(n2cc(F)c(=O)[nH]c2=O)C(OC(=O)c2ccccc2)C1OC(=O)c1ccccc1)c1ccccc1 (stereo not shown) [Compound 2b, 2′,3′,5′-Tri-O-benzoyl-5-fluorouridine] | 8.5 ± 1.4 | > 100 | Inactive | cells died (HeLa cells [3]): 30–45% |
| O=c1[nH]c(=O)n([C@@H]2O[C@H](CO)[C@@H](O)[C@H]2O)cc1Cl [Compound 1f, 5-Chlorouridine, reference compound] | > 50 |  |  |  |
| O=C(OC[C@H]1O[C@@H](n2ccc(=O)[nH]c2=O)[C@H](O)[C@@H]1O)c1ccccc1 [Compound 3a, 5′-O-benzoyluridine] | > 100 |  |  |  |
| O=C(OC[C@H]1O[C@@H](n2ccc(=O)[nH]c2=O)[C@H](OC(=O)c2ccccc2)[C@@H]1OC(=O)c1ccccc1)c1ccccc1 [Compound 2a, 2′,3′,5′-tri-O-benzoyluridine] | 6.3 ± 0.4 |  | Inactive |  |
| O=C(OC[C@H]1O[C@@H](n2ccc(=O)nc2)[C@H](OC(=O)c2ccccc2)[C@@H]1OC(=O)c1ccccc1)c1ccccc1 [Compound 5, 1-(2′,3′,5′-Tri-O-benzoyl-β-D-ribofuranosyl)-4-pyrimidone] | 18 ± 1 |  | significant only at the maximum concentration, 100 μM; also recorded: at a concentration of 20 μM, no synergy with topotecan was observed; also recorded: enhanced the cytotoxicity | sensitizing effect on cytotoxicity of topotecan (HeLa cells [2]; compound at 50 μM, various doses of topotecan (significant at 10 μM)): weak sensitizing effect |
| O=C(O[C@@H]1[C@H](OC(=O)c2ccccc2)[C@@H](CO)O[C@H]1n1ccc(=O)[nH]c1=O)c1ccccc1 [Compound 4a, 2′,3′-di-O-benzoyluridine] | 23 ± 6 | > 100 |  |  |
| Cc1cn([C@@H]2O[C@H](COC(=O)c3ccccc3)[C@@H](OC(=O)c3ccccc3)[C@H]2OC(=O)c2ccccc2)c(=O)[nH]c1=O [Compound 2e, 2′,3′,5′-Tri-O-benzoyl-5-methyluridine] | 2.7 ± 0.6 | > 100 | Inactive |  |
| O=c1ccn([C@@H]2O[C@H](CO)[C@@H](O)[C@H]2O)c(=O)[nH]1 [Compound 1a, Uridine, reference compound] | > 50 |  |  |  |
| CC[C@@]1(O)C(=O)OCc2c1cc1n(c2=O)Cc2cc3c(CN(C)C)c(O)ccc3nc2-1 [topotecan, reference compound] |  |  |  | IC50 (HeLa cells [3]; Homo sapiens, EZ4U assay, read-out: concentration causing the death of half the HeLa cells): 2 µM |
| O=C(OC[C@H]1O[C@@H](n2cc(Br)c(=O)[nH]c2=O)[C@H](OC(=O)c2ccccc2)[C@@H]1OC(=O)c1ccccc1)c1ccccc1 [Compound 2c, 2′,3′,5′-Tri-O-benzoyl-5-bromouridine] | 1.5 ± 0.9 | > 100 | Inactive | cells died (HeLa cells [3]): 30–45% |
| Nc1ccn([C@@H]2O[C@H](COC(=O)c3ccccc3)[C@@H](OC(=O)c3ccccc3)[C@H]2OC(=O)c2ccccc2)c(=O)n1 [Compound 8, 2′,3′,5′-tri-O-benzoylcytidine] | 4.3 ± 0.7 | > 100 | significantly (p = 0.05, Mann–Whitney U test) enhanced; also recorded: synergistic effect with topotecan; also recorded: enhanced the cytotoxicity | sensitizing effect on cytotoxicity of topotecan (HeLa cells [2]; [4]): doubled the cytotoxicity of topotecan; also recorded: doubling topotecan’s activity |
| O=C(OC[C@H]1O[C@@H](n2cccnc2=O)[C@H](OC(=O)c2ccccc2)[C@@H]1OC(=O)c1ccccc1)c1ccccc1 [Compound 6, 1-(2′,3′,5′-Tri-O-benzoyl-β-D-ribofuranosyl)-2-pyrimidone] | 6 ± 0.7 | > 100 | statistically insignificant |  |
| COc1ccn([C@@H]2O[C@H](COC(=O)c3ccccc3)[C@@H](OC(=O)c3ccccc3)[C@H]2OC(=O)c2ccccc2)c(=O)n1 [Compound 7, 2′,3′,5′-Tri-O-benzoyl-2-oxo-4-metoxypyrimidine] | 2.91 ± 0.01 | > 100 | significantly (p = 0.05, Mann–Whitney U test) enhanced; also recorded: synergistic effect with topotecan; also recorded: enhanced the cytotoxicity | cells died (HeLa cells [3]): 30–45%; sensitizing effect on cytotoxicity of topotecan (HeLa cells [2]; [4]): doubled the cytotoxicity of topotecan; also recorded: doubling topotecan’s activity |
| O=c1[nH]c(=O)n([C@@H]2O[C@H](CO)[C@@H](O)[C@H]2O)cc1I [Compound 1d, 5-Iodouridine, reference compound] | > 50 |  |  |  |
| O=c1[nH]c(=O)n([C@@H]2O[C@H](CO)[C@@H](O)[C@H]2O)cc1Br [Compound 1c, 5-bromouridine, reference compound] | > 50 |  |  |  |
| Cc1cn([C@@H]2O[C@H](CO)[C@@H](O)[C@H]2O)c(=O)[nH]c1=O [Compound 1e, 5-Methyluridine (Ribothymidine), reference compound] | > 50 |  |  |  |
